Laboratory results from publication PMC12084297, “Cytoplasmic connexin43-microtubule interactions promote glioblastoma stem-like cell maintenance and tumorigenicity” (Cell Death & Disease, 2025).

How the values were obtained:
[1] = test system: LN229/GSC tumor; experiment: LN229/GSC tumor growth in mouse flank; assay type: in vivo, mouse (BALB/c nude), human LN229/GSC cells
Description: Animal studies were approved by the Institutional Animal Care and Use Committee (IACUC) of Virginia Tech. Female athymic nude mice (Envigo) aged 6-8 weeks were used for the maintenance and propagation of PDX GBM22 cells. PDX GBM22 tumors were maintained by serial passage in nude mouse flanks as described previously. Briefly, tumors were harvested 14–18 days post-injection and glioblastoma cells were mechanically and enzymatically dissociated. Cells were passed through a 40 µm filter and maintained as gliospheres in DMEM/F-12 without phenol red and with L-glutamine (Thermo Fisher), supplemented with 10 ng/ml fibroblast growth factor (Thermo Fisher), 10 ng/ml epidermal growth factor (Thermo Fisher), Gibco B-27 Supplement without vitamin A (Thermo Fisher), amphotericin (Fisher), and gentamycin (Fisher). The medium was changed daily for 2 days. […] After 2 days, tumors were measured and mice were randomly separated into three groups (7 mice per group), and vehicle/control (PBS), JM2-scrambled or JM2 were administered at 300 μM intratumorally every day for 14 days. Tumors were then measured by blinded investigators and harvested for analysis (see section below). Tumor volume was calculated using the formula (length × width^2)/2. […] After 7 days, tumors were measured and mice were randomly separated into three groups; vehicle/control (PBS), JM2-scrambled, and JM2 (3 mice per group). […] Tumor sizes were measured by electronic calipers at different times by blinded investigators, and tumor volume was calculated using the formula (length × width^2)/2.
All quantification was performed on experiments repeated at least three times. […] Data were analyzed for significance using Student’s t test, one-way ANOVA with Tukey’s multiple comparisons test, and presented as mean ± SD. […] Statistical significance between experimental groups was determined using chi-square (χ²) tests within the ELDA framework. […]

[2] = test system: HEY1 mRNA; experiment: HEY1 mRNA by RT-qPCR, VTC-001 GSCs; assay type: cell-based, human; conditions: 50 μM, 24 h, RT-qPCR (as worded in text; no figure panel described)
Protocol: RNA was extracted using the PureLink^TM RNA mini extraction kit (Thermo Fisher) and on-column DNA digestion was completed using PureLink^TM DNase according to the manufacturer’s instructions. RNA was reverse transcribed to generate cDNA using the iScript^TM Reverse Transcription SuperMix for RT-qPCR kit (Bio-Rad Laboratories). Real-time PCR was performed using the SYBR select Master Mix for CFX (Thermo Fisher) in hard-shell 96-well PCR plates (Bio-Rad Laboratories) on a CFX Connect Real Time System (Bio-Rad Laboratories). Primer sequences used were: hNOTCH1_Fwd: 5’-CGCACAAGGTGTCTTCCAG-3’; hNOTCH1_Rev: 5’-CGGCGTGTGAGTTGATGA-3’; hHES1_Fwd: 5’-GGCTGGAGAGGCGGCTAA-3’; hHES1_Rev: 5’-[…]-3’; hHEY1_Fwd: 5’-[…]-3’; hHEY1_Rev: 5’-[…]-3’.

[3] = LN229/GSC model, 300 µM intratumorally every other day, first 31 days, n = 3

Sequence: VFFKGVKDRVKGRSD [JM2]
- Tumor growth, LN229/GSC model ([1]; 300 μM intratumorally every other day, 24 days, after 33 days, n = 3 mice per group, compared to control or JM2-scrambled): significant decrease in tumor growth
- t(87) statistic, rate of tumor growth, JM2 vs Control [1, 3]: -5.081
- t(87) statistic, rate of tumor growth, JM2 vs JM2-scrambled [1, 3]: -3.873
- Hey1 mRNA expression [2]: significantly decreased the expression of Notch downstream targets Hes1 and Hey1 at the transcription level
